From patent publication US7742877B1, “Methods, apparatus and computer program products for formulating culture media” (Becton, Dickinson & Company, priority 1999, dated 2010)

Key:
[1] = tested on: bacterial cells genetically engineered to produce a heterologous protein of interest; assay: Protein production by bacterial cells grown in culture medium containing a test peptide (QSAR example, exemplary data); type: cell-based; details: peptide included in culture medium of bacterial cells; exemplary (hypothetical) data
Source text: The present invention may be used to identify a peptide to include as a component of a culture medium. The culture medium may be used to culture bacterial cells genetically engineered to produce a heterologous protein of interest. Accordingly, it would be desirable to identify a peptide which when included in a culture medium will enhance protein production by bacterial cells grown in the culture medium (i.e., to satisfy a test requirement).
In this example, eight test peptides are selected from a tetrapeptide library: Asp-Lys-Ala-His (SEQ. ID. NO:23), Asp-Trp-Pro-Ala (SEQ. ID. NO:24), Glu-Ser-Met-His (SEQ. ID. NO:25), Gly-Val-Asn-Glu (SEQ. ID. NO:26), His-Glu-Asp-Val (SEQ. ID. NO:27), Glu-Thr-Gly-Ser (SEQ. ID. NO:28), His-Tyr-Gly-Val (SEQ. ID. NO:29, and Asp-Phe-Gly-Val (SEQ. ID. NO:30); Table 3). The test peptides may be selected from the library by any means known in the art. The values for three parameters (molecular weight, total charge, and mlogp, i.e., hydrophobicity) may be determined for each of the eight peptides. The indicia of the property, in this example a particular biological activity (i.e., protein production), may be determined for the eight peptides as well.

[2] = tested on: mammalian hybridoma cells producing and secreting antibodies; assay: Antibody production by hybridoma cells cultured in medium containing a test peptide (nearest neighbor example, model data); type: cell-based; details: for Biol. Act. (antibody production): training set peptide added to hybridoma culture medium, model data; for Observed Activity (antibody production): candidate peptides, (hypothetical) biological activities
Source text: One particular, and preferred, method of identifying compounds based on a distance function is nearest neighbor analysis. This method can be illustrated using the following simplified example with model data.
According to this illustrative example, the present invention can be used to identify a peptide as a culture medium component, e.g., for mammalian hybridoma cells producing and secreting antibodies. In particular, it is desirable to identify peptides, which when added to culture medium, will promote antibody production by hybridoma cells at a level greater than a test requirement. Four test peptides (Asp-Lys-Ala-His (SEQ. ID NO:23), Asp-Trp-Pro-Ala (SEQ. ID NO:24), Glu-Ser-Met-His (SEQ. ID NO:25), Gly-Val-Asn-Glu (SEQ. ID NO:26); i.e., a training set) may be selected from a peptide library as described above with respect to the QSAR example. Values to describe the various parameters of the peptides, for example, hydrophobicity (i.e., mlogp), molecular weight, and total charge may be calculated for each peptide (Table 5). Each peptide may be added to hybridoma culture medium and antibody production (i.e., biological activity) may be measured for the cells cultured in each culture medium (values shown in Table 5).
The peptides in the candidate set will then be assigned predicted indicia of the property based the closest peptide in the training set (Table 9).

| Substance | Biol. Act. (protein production) [1] | Biol. Act. (antibody production) [2] | Observed Activity (antibody production) [2] |
| --- | --- | --- | --- |
| Asp-Lys-Ala-His (DKAH) | 15.0 | 15.0 | – |
| Asp-Phe-Gly-Val (DFGV) | 22.0 | – | 22.0 |
| Asp-Trp-Pro-Ala (DWPA) | 25.0 | 25.0 | – |
| Glu-Ser-Met-His (ESMH) | 19.3 | 19.3 | – |
| Glu-Thr-Gly-Ser (ETGS) | 10.2 | – | 10.2 |
| Gly-Val-Asn-Glu (GVNE) | 14.4 | 14.4 | – |
| His-Glu-Asp-Val (HEDV) | 18.5 | – | 18.5 |
| His-Tyr-Gly-Val (HYGV) | 23.6 | – | 23.6 |
